{"source": "patent US20220205049A1", "about": "“METHODS OF DETECTING AND PREDICTING BREAST CANCER” (priority 2019, published 2022)", "tested_on": "breast tissue", "assay": "Mifepristone trial: breast tissue biopsies before and after treatment, DNA methylation (EPIC array), EpiDISH cell type composition and WID-BC-index", "format": "in vivo, human", "source_text": "The second set of samples were obtained from the clinical trial “The Effect of a Progesterone Receptor Modulator on Breast Tissue in Women With BRCA-1 and -2 Mutations—a Placebo Controlled RCT” (ClinicalTrials.gov Identifier: NCT01898312; regional ethical review board at Karolinska Institutet permit 2009/144-31/4). Study subjects were healthy premenopausal women aged 18-43 years with regular menstrual cycles lasting 25-35 days and with no contraindications to mifepristone. The main exclusion criteria were: use of any hormonal or intrauterine contraception and pregnancy or breastfeeding 2 months prior to the study; a history of breast cancer or other malignancies and adnexal abnormality upon transvaginal ultrasound examination. All women were instructed to use barrier contraceptive methods throughout the duration of the study.\nAfter signing an informed consent, study subjects were randomised into two groups. One group (i.e. 11 BRCA carriers and 9 controls) was treated with 50 mg mifepristone (one quarter of 200 mg Mifegyne®, Exelgyn, Paris, France) every other day for two months (56 days) starting on the first day of the menstrual cycle. […]\nWe analysed breast tissue samples from 21 BRCA carriers and 23 healthy controls before and after treatment with either mifepristone or placebo for two months. […]"}
{"smiles": "CC#C[C@]1(O)CC[C@H]2[C@@H]3CCC4=CC(=O)CCC4=C3[C@@H](c3ccc(N(C)C)cc3)C[C@@]21C", "note": "[mifepristone]", "values": [{"measurement": "women with downward trend in the WID-BC-index after treatment", "setting": "breast tissue, after adjustment for fat content, before vs after two months treatment, did not reach statistical significance", "result": 80, "unit": "%"}, {"measurement": "epithelial cell proportion in breast tissue samples after treatment", "setting": "matched BRCA carrier and control groups, before vs after 50 mg every other day for two months, not seen in the placebo group", "result": "statistically significant decrease"}]}
